Target: T1, Cytochrome P450 26A1 (Homo sapiens, UniProt O43174)
T1 sequence (O43174 whole entry): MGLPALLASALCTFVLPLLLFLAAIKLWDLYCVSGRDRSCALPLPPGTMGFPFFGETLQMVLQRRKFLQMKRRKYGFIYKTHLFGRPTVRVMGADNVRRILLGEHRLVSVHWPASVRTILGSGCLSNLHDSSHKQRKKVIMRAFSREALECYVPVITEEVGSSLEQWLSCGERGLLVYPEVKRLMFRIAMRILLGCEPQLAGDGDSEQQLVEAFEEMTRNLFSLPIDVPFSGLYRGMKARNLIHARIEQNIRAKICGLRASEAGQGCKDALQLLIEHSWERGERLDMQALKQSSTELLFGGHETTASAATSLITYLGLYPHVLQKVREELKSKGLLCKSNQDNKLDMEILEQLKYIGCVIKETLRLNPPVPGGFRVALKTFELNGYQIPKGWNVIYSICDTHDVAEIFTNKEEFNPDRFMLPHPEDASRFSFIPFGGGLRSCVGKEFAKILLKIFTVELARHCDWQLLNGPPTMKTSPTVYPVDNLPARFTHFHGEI
Test: Cell Assay

Row | Compound | IC50 [µM]
1 | c1ccc(C(c2ccc(Nc3nc4ccccc4o3)cc2)n2cncn2)cc1 (centres undefined) [1H-1,2,4-triazole, 11] | 18
2 | c1ccc(C(c2ccc(Nc3nc4ccccc4o3)cc2)n2cnnc2)cc1 (centres undefined) [1H-1,2,4-triazole, 12] | > 20
3 | c1ccc(C(c2ccc(Nc3nc4ccccc4o3)cc2)n2cnnn2)cc1 (centres undefined) [1H-tetrazole, 13] | > 20
4 | Fc1ccc(C(c2ccc(Nc3nc4ccccc4o3)cc2)n2ccnc2)cc1 (centres undefined) [Oxazolamine derivative, 5a] | 35
5 | COC(=O)c1ccc(C(c2ccc(Nc3nc4ccccc4o3)cc2)n2ccnc2)cc1 (centres undefined) [Oxazolamine derivative, 5c] | 20
6 | O=C(O)c1ccc(C(c2ccc(Nc3nc4ccccc4o3)cc2)n2ccnc2)cc1 (centres undefined) [Oxazolamine derivative, 5d] | 50
7 | COc1ccc(C(c2ccc(Nc3nc4ccccc4o3)cc2)n2ccnc2)cc1 (centres undefined) [Oxazolamine derivative, 5e] | > 20
8 | Oc1ccc(C(c2ccc(Nc3nc4ccccc4o3)cc2)n2ccnc2)cc1 (centres undefined) [Oxazolamine derivative, 5f] | 12
9 | CCC(CC)C(c1ccc(Nc2nc3ccccc3s2)cc1)n1cncn1 (centres undefined) [R115866] | 0.005

— BindingDB's records for doi:10.1080/14756360802218334 (Cardiff University, 2009)
